Results as given in patent US20090221581A1, “Methods of treating pain” (priority 2005, published 2009).

Assays:
CDK9/CycT = molecular target: T1, CDK9/CycT (Homo sapiens, UniProt P50750); experiment: In vitro kinase inhibition assay, CDK9/CycT; assay type: biochemical
T1 construct: host or cells: Sf9 insect cells, baculovirus
Description: (§1) In vitro kinase inhibition assays may be performed according to the following protocol:
(§2) Compounds are used as 1×10^−02 M stock solutions in 100% DMSO, 100 μl each in column 2 of three 96-well V-shaped microtiter plates (in the following, said plates are referred to as “master plates”).
(§3) Subsequently, the 1×10^−02 M stock solutions in column 2 of the master plates are subjected to a serial, semi-logarithmic dilution using 100% DMSO as a solvent, resulting in 10 different concentrations, the dilution endpoint being 3×10^−07 M/100% DMSO in column 12. Column 1 and 7 are filled with 100% DMSO as controls. […]
(§4) For the determination of inhibitory profiles, the following protein kinases were used: CDK2/CycA, CDK4/CycD1, CDK6/CycD1 and CDK9/CycT. […] The purity of each kinase is determined by SDS-PAGE/silver staining and the identity of each kinase is verified by western blot analysis with kinase specific antibodies or by mass spectroscopy. […]
(§5) Reaction mixtures are incubated at 30° C. for 80 minutes. […] Incorporation of ^33P is determined with a microplate scintillation counter (Microbeta, Wallac). […]
(§6) The median value of the counts in column 1 (n=8) of each assay plate is defined as “low control”. This value reflects unspecific binding of radioactivity to the plate in the absence of a protein kinase but in the presence of the substrate. […]

CDK4/CycD1 = molecular target: T2, CDK4/CycD1 (Homo sapiens, UniProt P11802); experiment: In vitro kinase inhibition assay, CDK4/CycD1; assay type: biochemical
T2 construct: host or cells: Sf9 insect cells, baculovirus
T2 sequence (P11802 whole entry): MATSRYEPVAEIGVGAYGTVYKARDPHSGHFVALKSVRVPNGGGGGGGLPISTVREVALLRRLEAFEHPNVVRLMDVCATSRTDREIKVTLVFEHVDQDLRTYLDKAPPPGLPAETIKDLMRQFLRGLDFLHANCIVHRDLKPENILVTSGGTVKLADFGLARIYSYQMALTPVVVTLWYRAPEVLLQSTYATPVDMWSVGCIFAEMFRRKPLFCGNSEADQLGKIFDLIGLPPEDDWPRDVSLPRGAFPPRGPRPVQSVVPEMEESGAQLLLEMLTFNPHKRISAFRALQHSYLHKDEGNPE
T2 sequence (P24385 whole entry partner): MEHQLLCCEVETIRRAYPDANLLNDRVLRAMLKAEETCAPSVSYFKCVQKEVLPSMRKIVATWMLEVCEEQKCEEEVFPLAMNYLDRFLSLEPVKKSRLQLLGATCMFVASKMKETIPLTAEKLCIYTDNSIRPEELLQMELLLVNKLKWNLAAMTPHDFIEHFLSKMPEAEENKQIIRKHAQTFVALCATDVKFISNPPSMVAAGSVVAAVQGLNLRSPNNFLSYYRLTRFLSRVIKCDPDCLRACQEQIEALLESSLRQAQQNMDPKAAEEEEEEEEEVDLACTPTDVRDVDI
Description: as §1, §2, §3, §4, §5, §6

CDK3/CycE = molecular target: T3, CDK3/CycE (Homo sapiens, UniProt Q00526); experiment: In vitro kinase inhibition assay, CDK3/CycE; assay type: biochemical
T3 construct: made in house; host or cells: Sf9 insect cells, baculovirus
T3 sequence (Q00526 whole entry): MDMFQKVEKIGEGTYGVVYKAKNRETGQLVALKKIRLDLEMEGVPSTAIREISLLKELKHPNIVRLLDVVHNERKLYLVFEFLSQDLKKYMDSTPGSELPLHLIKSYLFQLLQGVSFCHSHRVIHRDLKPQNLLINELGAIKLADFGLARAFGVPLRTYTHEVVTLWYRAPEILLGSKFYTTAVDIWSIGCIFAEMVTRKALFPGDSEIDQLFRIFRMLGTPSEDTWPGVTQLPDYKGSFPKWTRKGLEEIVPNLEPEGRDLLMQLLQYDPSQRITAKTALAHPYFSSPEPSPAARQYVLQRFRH
T3 sequence (P24864 whole entry partner): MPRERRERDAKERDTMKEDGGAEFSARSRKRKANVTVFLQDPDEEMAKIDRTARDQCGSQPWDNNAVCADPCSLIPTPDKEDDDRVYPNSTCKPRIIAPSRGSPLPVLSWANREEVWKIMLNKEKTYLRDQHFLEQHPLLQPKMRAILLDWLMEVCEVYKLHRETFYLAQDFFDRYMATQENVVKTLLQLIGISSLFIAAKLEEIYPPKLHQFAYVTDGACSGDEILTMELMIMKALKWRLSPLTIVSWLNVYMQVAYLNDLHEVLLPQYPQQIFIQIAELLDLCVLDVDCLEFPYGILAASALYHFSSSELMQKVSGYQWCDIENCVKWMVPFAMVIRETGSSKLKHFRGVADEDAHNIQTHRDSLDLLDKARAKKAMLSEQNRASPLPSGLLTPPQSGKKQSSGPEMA

[1] = test system: TNFα expression in microglial cell line (EOC20); experiment: TNFα expression in microglial cells, Real-Time PCR; assay type: cell-based, human
Description: In order to validate the hypothesis that TNFα stimulation is regulated by an autocrine loop (i.e., TNFα induces expression of TNFα; see FIG. 2), a microglial cell line (EOC20) […] was stimulated in vitro by addition of TNFα (20 ng/ml).
1 hour prior to addition of TNFα, stimulated or unstimulated cells, respectively, were treated with DMSO (vehicle control), or 0.5 μM and 0.05 μM, respectively, of compound A. Cells were harvested 48 h after addition of TNFα. RNA was isolated from the samples and the amount of amplicon of TNFα (and of other cytokines) and of several housekeeping genes was measured by light cycler-based Real-Time PCR.

CDK2/CycA = molecular target: T4, CDK2/CycA (Homo sapiens, UniProt P24941); experiment: In vitro kinase inhibition assay, CDK2/CycA; assay type: biochemical
T4 construct: host or cells: Sf9 insect cells, baculovirus
Description: as §1, §2, §3, §4, §5, §6

T1 sequence (P50750 whole entry): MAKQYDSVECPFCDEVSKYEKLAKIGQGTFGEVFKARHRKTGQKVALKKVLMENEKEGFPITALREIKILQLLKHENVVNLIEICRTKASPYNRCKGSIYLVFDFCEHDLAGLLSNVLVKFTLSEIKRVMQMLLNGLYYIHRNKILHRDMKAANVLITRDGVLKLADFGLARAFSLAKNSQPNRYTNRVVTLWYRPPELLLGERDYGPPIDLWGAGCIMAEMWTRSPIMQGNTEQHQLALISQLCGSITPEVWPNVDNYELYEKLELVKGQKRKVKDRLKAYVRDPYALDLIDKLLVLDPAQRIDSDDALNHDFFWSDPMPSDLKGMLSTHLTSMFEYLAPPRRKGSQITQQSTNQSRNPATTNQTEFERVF
T1 sequence (O60563 whole entry partner): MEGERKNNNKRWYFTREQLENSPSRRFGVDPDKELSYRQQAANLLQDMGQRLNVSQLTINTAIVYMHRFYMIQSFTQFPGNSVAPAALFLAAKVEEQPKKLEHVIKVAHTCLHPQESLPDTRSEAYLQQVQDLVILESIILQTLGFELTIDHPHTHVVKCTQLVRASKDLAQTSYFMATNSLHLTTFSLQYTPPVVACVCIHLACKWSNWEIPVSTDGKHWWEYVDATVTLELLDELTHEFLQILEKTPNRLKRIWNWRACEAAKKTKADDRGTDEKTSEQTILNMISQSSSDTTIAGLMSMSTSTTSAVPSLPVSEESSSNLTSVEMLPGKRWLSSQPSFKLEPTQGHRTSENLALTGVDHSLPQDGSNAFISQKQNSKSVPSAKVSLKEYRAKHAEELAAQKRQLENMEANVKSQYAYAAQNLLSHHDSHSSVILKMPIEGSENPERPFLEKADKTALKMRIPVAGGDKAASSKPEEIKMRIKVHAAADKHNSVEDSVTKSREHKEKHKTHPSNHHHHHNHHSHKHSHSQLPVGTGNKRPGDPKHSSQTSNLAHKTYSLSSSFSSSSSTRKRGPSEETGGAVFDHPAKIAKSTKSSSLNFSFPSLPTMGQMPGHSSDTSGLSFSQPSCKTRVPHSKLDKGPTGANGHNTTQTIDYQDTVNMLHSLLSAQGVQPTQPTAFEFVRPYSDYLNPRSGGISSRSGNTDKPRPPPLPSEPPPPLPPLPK

Structure (SMILES): COc1ccccc1-c1cc(Nc2cccc(S(N)(=O)=O)c2)ncn1 [Compound A]
- IC50 (CDK9/CycT; CDK9/CycT): 0.63 µM
- specificity for CDK9 over other CDKs (CDK9/CycT; from IC50 values of Table 1): high specificity for CDK9
- IC50 (CDK4/CycD1): 2.79 µM
- IC50 (CDK3/CycE): 18.5 µM
- TNFα message in unstimulated cells ([1]; EOC20 cells without TNFα stimulation, 0.5 μM and 0.05 μM compound): reduction of TNFα message
- TNFα amplicon in TNFα-stimulated cells ([1]; EOC20 cells, TNFα 20 ng/ml, 0.5 μM and 0.05 μM compound 1 hour prior, harvested 48 h): dose-dependent reduction
- IC50 (CDK2/CycA): 10.1 µM
